What was measured:
Assay type in all cases: biochemical
[1] = target: T1, recombinant human PKG1-beta (Homo sapiens, UniProt Q13976); test: Determination of Protein Kinase G inhibition (selectivity); conditions: from IC50 values
T1 construct: PKG1-beta (full-length, with N-terminal His-tag); His-tag (N); purchased Millipore GmbH, Schwalbach, Germany
T1 sequence (Q13976 1-686 isoform Q13976-2): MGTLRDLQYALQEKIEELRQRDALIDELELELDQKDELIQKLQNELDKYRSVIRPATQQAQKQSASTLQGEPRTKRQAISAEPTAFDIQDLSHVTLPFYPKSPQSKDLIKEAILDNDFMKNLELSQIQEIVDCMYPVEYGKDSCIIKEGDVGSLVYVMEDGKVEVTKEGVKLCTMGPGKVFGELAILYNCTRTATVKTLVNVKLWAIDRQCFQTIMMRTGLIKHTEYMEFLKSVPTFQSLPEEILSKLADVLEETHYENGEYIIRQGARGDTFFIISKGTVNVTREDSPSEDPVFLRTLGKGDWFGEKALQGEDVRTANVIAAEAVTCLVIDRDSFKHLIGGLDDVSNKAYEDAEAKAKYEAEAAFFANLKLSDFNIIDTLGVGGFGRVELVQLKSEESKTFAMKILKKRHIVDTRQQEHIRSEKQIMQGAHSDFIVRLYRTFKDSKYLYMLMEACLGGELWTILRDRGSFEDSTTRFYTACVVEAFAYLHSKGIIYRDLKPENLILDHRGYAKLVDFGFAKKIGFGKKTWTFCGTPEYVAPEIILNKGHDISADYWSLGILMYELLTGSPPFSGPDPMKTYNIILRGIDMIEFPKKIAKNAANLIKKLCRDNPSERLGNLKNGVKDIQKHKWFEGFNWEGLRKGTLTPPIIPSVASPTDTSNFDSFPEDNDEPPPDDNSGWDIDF
Experimental: (§1) 2) Determination of Protein Kinase a and Protein Kinase G Inhibition
(§2) To measure PKA and PKG1-beta inhibition, IC50 values were determined according to the following protocol:
(§3) Active recombinant human PKG1-beta (full-length, with N-terminal His-tag) was purchased from Millipore GmbH, Schwalbach, Germany. Active recombinant human PKA (residues 1-351, N-terminal His-tag) was obtained from Invitrogen, Karlsruhe, Germany. The peptide substrate, Fluorescein-[…]-COOH, was obtained from JPT Peptide Technologies, Berlin, Germany. Adenosine-5′-triphosphate (ATP), bovine serum albumine (BSA), dimethylsulphoxide (DMSO), 4-(2-Hydroxyethyl)piperazine-1-ethanesulfonic acid (Hepes), Brij-35, dithiothreitol (DTT) and Pluronic F-68 were purchased from Sigma-Aldrich, Munich, Germany. Tris(hydroxymethyl)-aminomethane (Tris), magnesium chloride, NaOH, 1M HCl and EDTA were obtained from Merck Biosciences, Darmstadt, Germany. “Complete” protease inhibitor was from Roche Diagnostics, Mannheim, Germany. Test compounds were diluted to the appropriate concentrations in buffer 1 (25 mM Tris-HCl, pH 7.4, 5 mM MgCl2, 2 mM DTT, 0.02% (w/v) BSA, 0.01% Pluronic F-68 and 3% DMSO). PKG1-beta and PKA were diluted to concentrations of 150 ng/ml and 30 ng/ml, respectively, in buffer 2. The peptide substrate and ATP were diluted to concentrations of 3 μM and 120 μM, respectively, in the buffer 2. Two μl of the compound solution were mixed with 2 μl of the diluted enzyme in a 384-well small volume microtiter plate (Greiner, Bio-One, Frickenhausen, Germany), and the kinase reaction was initiated by addition of 2 μl of the solution containing peptide substrate and ATP. After 60 min incubation at 32° C., the reaction was stopped by addition of 20 μl of a solution containing 100 mM Hepes-NaOH, pH 7.4, 0.015% (v/v) Brij-35, 45 mM EDTA and 0.227% chip coating reagent 1 (Caliper Lifescience Inc, Hopkinton, Mass.). Phosphorylation of the substrate peptide was then detected on a Caliper 3000 instrument essentially as described by Pommereau et al (J. Biomol. Screening 9(5), 409-416, 2004). Separation conditions were as follows: Pressure −1.3 psi, upstream voltage −1562 V, downstream voltage −500 V, sample sip time 200 ms, Positive controls (buffer 1 instead of compound) and negative controls (buffer 1 instead of compound and buffer 2 instead of kinase solution) were run in parallel on each plate. The following products/compounds were tested in said assay by using the respective form (salt or free base) obtained as in the examples described above and the following activities were measured.

[2] = target: T2, recombinant human PKA (Homo sapiens, UniProt P17612); test: Determination of Protein Kinase A inhibition (selectivity); conditions: from IC50 values
T2 construct: recombinant human PKA (residues 1-351, N-terminal His-tag); His-tag (N); purchased Invitrogen, Karlsruhe, Germany
Experimental: as §1, §2, §3

[3] = target: T3, human recombinant ROCK II (Homo sapiens, UniProt O75116); test: Determination of Rho kinase inhibition (ROCK II, Caliper peptide phosphorylation assay); conditions: respective form (salt or free base) as obtained in the examples, 60 min at 32° C.
T3 construct: recombinant human ROCK-II residues 11-552; His6 (N); purchased Millipore GmbH, Schwalbach, Germany
Method in brief: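 Enzyme: active N-terminal His6-tagged recombinant human ROCK-II, residues 11-552. Substrate: a fluorescein-labelled peptide, with ATP. IC50 values were determined.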

T3 sequence (O75116 11-552): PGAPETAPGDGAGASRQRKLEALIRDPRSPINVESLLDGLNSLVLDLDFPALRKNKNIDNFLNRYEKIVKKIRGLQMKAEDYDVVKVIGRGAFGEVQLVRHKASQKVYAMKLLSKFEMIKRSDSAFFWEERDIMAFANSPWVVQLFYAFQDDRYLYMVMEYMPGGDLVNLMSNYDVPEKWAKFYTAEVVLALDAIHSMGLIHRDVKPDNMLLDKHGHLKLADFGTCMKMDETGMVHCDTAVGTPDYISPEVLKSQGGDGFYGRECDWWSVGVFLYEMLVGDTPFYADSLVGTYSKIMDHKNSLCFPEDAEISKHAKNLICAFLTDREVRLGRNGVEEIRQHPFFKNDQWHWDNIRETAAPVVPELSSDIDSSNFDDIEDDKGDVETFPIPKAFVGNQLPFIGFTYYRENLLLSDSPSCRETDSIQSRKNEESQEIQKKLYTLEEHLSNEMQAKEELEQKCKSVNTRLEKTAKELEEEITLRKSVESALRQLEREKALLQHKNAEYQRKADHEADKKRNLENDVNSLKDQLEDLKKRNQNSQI

| SMILES | Selectivity against PKG [1] [fold] | Selectivity against PKA [2] [fold] | IC50 [3] [nM] | pIC50 [3] |
| --- | --- | --- | --- | --- |
| CCC(N)[C@]1(CC)CC[C@H](Oc2cc3cc[nH]c(=O)c3cc2C)CC1 (stereo partly drawn) [Example 52, cis-6-[4-(1-Amino-propyl)-4-ethyl-cyclohexyloxy]-7-methyl-2H-isoquinolin-1-one] | >10 | >100 | 100 to 1000 |  |
| CCC(N)C1(CC)CCC(Oc2cc3cc[nH]c(=O)c3cc2Cl)CC1 (single isomer, unassigned) [Example 108] | >10 | >1000 |  | +++++++ (8.0 ≦ pIC50) |
| CCC(N)[C@]1(OC)CC[C@@H](Oc2cc3cc[nH]c(=O)c3cc2Cl)CC1 (stereo partly drawn) [Example 59, trans-6-[4-(1-Amino-propyl)-4-methoxy-cyclohexyloxy]-7-chloro-2H-isoquinolin-1-one] | >100 | >100 | 10 to 100 |  |
| CC(C)C(N)C1(CC2CC2)CCC(Oc2cc3cc[nH]c(=O)c3cc2Cl)CC1 (single isomer, unassigned) [Example 18, 6-[4-(1-Amino-2-methyl-propyl)-4-cyclopropylmethyl-cyclohexyloxy]-7-chloro-2H-isoquinolin-1-one] | >300 | >300 | ≤ 10 |  |
| NC(C1CC1)[C@]1(CC2CCOCC2)CC[C@H](Oc2cc3cc[nH]c(=O)c3cc2Cl)CC1 (stereo partly drawn) [Example 68, cis-6-[4-(Amino-cyclopropyl-methyl)-4-(tetrahydro-pyran-4-ylmethyl)-cyclohexyloxy]-7-chloro-2H-isoquinolin-1-one] | >300 | >1000 | ≤ 10 |  |
| CCC(N)C1(CC(C)C)CCC(Oc2cc3cc[nH]c(=O)c3cc2Cl)CC1 (single isomer, unassigned) [Example 28, 6-[4-(1-Amino-propyl)-4-isobutyl-cyclohexyloxy]-7-chloro-2H-isoquinolin-1-one] | >10 | >10 | 100 to 1000 |  |
| CC(N)C1(CC2CC2)CCC(Oc2cc3cc[nH]c(=O)c3cc2Cl)CC1 (single isomer, unassigned) [Example 11, 6-[4-(1-Amino-ethyl)-4-cyclopropylmethyl-cyclohexyloxy]-7-chloro-2H-isoquinolin-1-one] | >300 | >100 | 10 to 100 |  |
| CCC(N)[C@]1(CC)CC[C@H](Oc2c(C)cc3c(=O)[nH]ccc3c2C)CC1 (stereo partly drawn) [Example 54, cis-6-[4-(1-Amino-propyl)-4-ethyl-cyclohexyloxy]-5,7-dimethyl-2H-isoquinolin-1-one] | >10 | >10 | 100 to 1000 |  |
| CCCC1(C(N)CC)CCC(Oc2cc3cc[nH]c(=O)c3cc2Cl)CC1 (single isomer, unassigned) [Example 5, 6-[4-(1-Amino-propyl)-4-propyl-cyclohexyloxy]-7-chloro-2H-isoquinolin-1-one] | >1000 | >1000 | ≤ 10 |  |
| CCC(N)[C@]1(CC)CC[C@H](Oc2cc3cc[nH]c(=O)c3cc2Cl)CC1 (stereo partly drawn) [Example 34, cis-6-[4-(1-Amino-propyl)-4-ethyl-cyclohexyloxy]-7-chloro-2H-isoquinolin-1-one] | >300 | >1000 | ≤ 10 |  |
| CCCC1(C(N)C2CC2)CCC(Oc2cc3cc[nH]c(=O)c3cc2Cl)CC1 (single isomer, unassigned) [Example 7, 6-[4-(Amino-cyclopropyl-methyl)-4-propyl-cyclohexyloxy]-7-chloro-2H-isoquinolin-1-one] | >100 | >300 | 10 to 100 |  |
| CC[C@]1(C(C)N)CC[C@@H](Oc2cc3cc[nH]c(=O)c3cc2F)CC1 (stereo partly drawn) [Example 78, cis-6-[4-(1-Amino-ethyl)-4-ethyl-cyclohexyloxy]-7-fluoro-2H-isoquinolin-1-one] | >100 | >300 | 10 to 100 |  |
| CCCC(N)[C@]1(C)CC[C@H](Oc2cc3cc[nH]c(=O)c3cc2Cl)CC1 (stereo partly drawn) [Example 62, cis-6-[4-(1-Amino-butyl)-4-methyl-cyclohexyloxy]-7-chloro-2H-isoquinolin-1-one] | >100 | >1000 | ≤ 10 |  |
| CCC(N)[C@]1(C2CCCCC2)CC[C@H](Oc2cc3cc[nH]c(=O)c3cc2Cl)CC1 (stereo partly drawn) [Example 65] | >100 | >300 | 10 to 100 |  |
| CCC(N)C1(CC)CCC(Oc2cc3cc[nH]c(=O)c3cc2Cl)CC1 (single isomer, unassigned) [Example 107] | >1000 | >1000 | ≤ 10 |  |
| CCC(N)[C@]1(C2CCSCC2)CC[C@H](Oc2cc3cc[nH]c(=O)c3cc2Cl)CC1 (stereo partly drawn) [Example 76, cis-6-[4-(1-Amino-propyl)-4-(tetrahydro-thiopyran-4-yl)-cyclohexyloxy]-7-chloro-2H-isoquinolin-1-one] | >1000 | >1000 | ≤ 10 |  |
| NC(C1CC1)[C@]1(CCCC(F)(F)F)CC[C@H](Oc2cc3cc[nH]c(=O)c3cc2Cl)CC1 (stereo partly drawn) [Example 73, cis-6-[4-(Amino-cyclopropyl-methyl)-4-(4,4,4-trifluoro-butyl)-cyclohexyloxy]-7-chloro-2H-isoquinolin-1-one] | >300 | >1000 | ≤ 10 |  |
| CCC(N)C1(C2CCOCC2)CCC(Oc2cc3cc[nH]c(=O)c3cc2Cl)CC1 (single isomer, unassigned) [Example 106] | >1000 | >1000 | ≤ 10 |  |

Source: patent publication US8399482B2, “6-substituted isoquinolines and isoquinolinones” (Sanofi, priority 2008, dated 2013)
